# US12594346B2, “Crosslinked hydrogel for immune checkpoint blockade delivery” (GEORGIA TECH RESEARCH CORPORATION, priority 2020, dated 2026)
# Assay: Biotin-4-fluorescein (B4F) competition assay, binding affinity of chimeric proteins
# Conditions: room temperature
substance,measurement,value
commercial streptavidin: streptavidin (MP Biomedicals) [reference compound],"binding behavior to biotin-4-fluorescein (fluorescence intensity, binding curve fits)",equivalent binding behavior
